Measurements as given in PubChem BioAssay (NCI).
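Step 1: Grow cells in 96-well plates. Step 2: Expose to compound for 48 hours at 5 concentrations. Step 3: Interpolate endpoints linearly; if unreached, use highest concentration. At the TGI there is no net growth.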

How the values were obtained:
Experiment in all cases: inhibition of tumour cell growth, NCI panel, 48 h
A549 NSCLC = tested on: A549 NSCLC
SW-620 colon = tested on: SW-620 colon
RXF 393 renal = tested on: RXF 393 renal
K-562 leukemia = tested on: K-562 leukemia
KM12 colon = tested on: KM12 colon
SR leukemia = tested on: SR leukemia
MDA-MB-231 breast = tested on: MDA-MB-231 breast
IGROV1 ovarian = tested on: IGROV1 ovarian
RPMI-8226 leukemia = tested on: RPMI-8226 leukemia
UACC-62 melanoma = tested on: UACC-62 melanoma
SN12C renal = tested on: SN12C renal
NCI-H460 lung = tested on: NCI-H460 lung

SMILES	TGI (A549 NSCLC) [µM]	TGI (SW-620 colon) [µM]	TGI (RXF 393 renal) [µM]	TGI (K-562 leukemia) [µM]	TGI (KM12 colon) [µM]	TGI (SR leukemia) [µM]	TGI (MDA-MB-231 breast) [µM]	TGI (IGROV1 ovarian) [µM]	TGI (RPMI-8226 leukemia) [µM]	TGI (UACC-62 melanoma) [µM]	TGI (SN12C renal) [µM]	TGI (NCI-H460 lung) [µM]
CC(=O)c1c(N=[N+]=[N-])c2cccc3c2n(c1=O)CCC3	> 100	30.7	45.4	> 100	28.7	> 100	32.1	42.8	66.9	35.1	44.5	35.1
CCCCC1Cc2cc(O)ccc2-c2nc3cc(O)ccc3n21 (stereo not given) (tested in a mixture with another compound)	38.6	39.5	35.6	41.3	75.1	34	31.3	28.9	31.5	25.5	36	32.9
O=c1[nH]c2nc3ccccc3c(=O)n2/c1=C/c1cccs1	> 100	> 100	> 100	> 100	> 100	> 100	> 100	> 100	> 100	> 100	> 100	–
Cc1ccnc2c1C(=O)C1=C(OC(C)(C)CC1O)C2=O (stereo not given)	21.6	10.4	23	> 100	15	15.4	15.4	11.3	> 39.3	3.25	12.4	8.97
N#Cc1cc2c(cc1Cl)Sc1nnc(Nc3ccccc3)n1S2(=O)=O	16	3.13	4.48	11.1	4.65	0.696	4.7	5.76	9.17	3.58	3.24	9.22
c1ccc2c3[nH]c(c2c1)=Nc1ccc(cc1)-c1nc2ccc(cc2o1)N=c1[nH]c(c2ccccc12)=Nc1ccc2nc(oc2c1)-c1ccc(cc1)N=3	> 100	> 100	> 100	51.5	> 100	71.6	> 100	> 100	86.2	> 100	> 100	20.5
N/C(=N\S(=O)(=O)c1ccc(-c2ncccc2C(F)(F)F)s1)Nc1ccc(Cl)cc1	36.7	35.6	41.5	63.8	81.2	46.4	27.2	27.8	> 100	23.3	38.3	25.9
O=c1[nH]nc(Cc2ccc(Cl)cc2)n1/N=C/c1cccs1	> 100	> 100	32.7	> 100	> 100	> 100	49.7	79.5	> 100	> 100	> 100	> 100
COC(=O)[C@@H](NC(=O)N(Cc1ccccc1)C[C@H](CC(C)C)NC(=O)[C@@H](NC(=O)OC(C)(C)C)C(C)C)C(C)C	> 100	> 100	> 100	> 100	> 100	> 100	> 100	–	> 100	> 100	–	> 100
